In patent publication US8232377B2, “Method for high-level secretory production of protein” (priority 2006, dated 2012):

Tests used:
[1] = test system: O. minuta YY3P2omH strain; experiment: Antibody production by PMT2-inactivated, HAC1-introduced O. minuta using PMT inhibitor (1c), TR-FRET quantification; format: cell-based, Ogataea minuta; settings: stock solution 2.5 mM; 27° C., 3 days (FIG. 18)
Experimental: (§1) 20 mM Tris-HCl buffer (pH 7.2) comprising 12 μl of 0.97 μg/ml LANCE Eu-W1024 labeled anti-human IgG (PerkinElmer), 8.3 ug/ml of biotin-conjugated mouse anti-human IgG (BD Bioscience), 16.7 ug/ml Surelight APC streptavidin (PerkinElmer), and 10% of Block Ace (Dainippon Pharmaceutical) was applied to a 96-well half area plate (Corning), and 2 μl of a sample solution prepared by adequately diluting the culture solution prepared in (2) above with 20 mM Tris-HCl buffer (pH 7.2) containing 10% of Block Ace was introduced therein, followed by agitation. The sample solution was subjected to the reaction at room temperature in the dark for 1 hour, and fluorescence was then assayed using EnVision (PerkinElmer). The amount of aggregate antibodies produced was determined based on the value at 665 nm/615 nm. Antibodies produced in animal cells (CHO) were used as standard samples. […]
(§2) A platinum loopful of antibody-producing strains with an insertionally inactivated PMT gene and with the HAC1 gene introduced therein prepared in Example 25 (1) was inoculated into 5 ml of B2YP4G medium, cultured at 27° C. for 1 day, and diluted with B2YP4G medium to adjust OD600 to 10. […] Culture was conducted at 27° C. for an additional 3 days, OD600 was measured every 24 hours, and PMT inhibitors (1c) were added in amounts of 0.00032 μM, 0.0016 μM, 0.008 μM, and 0.04 μM, respectively, as the OD600 value increased by 1. […]

[2] = test system: O. minuta AK3RH and O. minuta AK3AHy; experiment: Antibody production by transformed O. minuta with PMT inhibitor added, Western analysis of culture supernatant; format: cell-based, Ogataea minuta; settings: Western analysis (FIG. 6)
Experimental: O. minuta AK3RH and O. minuta AK3AHy were cultured in BYPG medium (1% yeast extract (Difco), 2% polypeptone (Difco), 0.5% glycerol, and 0.1M phosphate buffer (pH 6.0)) for 2 days, and these strain were cultured in BYPM media [1% yeast extract (Difco), 2% polypeptone (Difco), 1.5% methanol, and 0.1M phosphate buffer (pH 6.0)] to which 0 μM, 1 μM, 5 μM, 10 μM, 20 μM, and 50 μM PMT inhibitors (the rhodanine-3-acetic acid derivative: 5-[[3,4-(1-phenylmethoxy)phenyl]methylene]-4-oxo-2-thioxo-3-thiazolidineacetic acid (compound (1c) described in Bioorganic & Medicinal Chemistry Letters, Vol. 14, p. 3975, 2004)) had been added at 28° C. for 2 days. A culture supernatant was prepared from the culture solution and subjected to SDS-PAGE. Thereafter, the separated protein was blotted on a PVDF membrane, and Western analysis was carried out using a labeled anti-human antibody (anti-human Fc antibody). […] The adequate concentration of the PMT inhibitor to be added was 5 μM. In such a case, the amount of antibody secretion and the percentage of aggregate formation were increased.

[3] = test system: O. minuta AA2omH, AA2 ppH, AA2scH and AA2Hy strains; experiment: Antibody production by O. minuta strains with HAC1 gene introduced using PMT inhibitor (1c), TR-FRET quantification; format: cell-based, Ogataea minuta; settings: 2 μM, plus 0.04 μM as OD600 increased by 1; 27° C., 3 days; HAC1 strains compared with control AA2Hy strain (FIG. 11)
Experimental: as §1
A platinum loopful of the O. minuta AA2omH strain, the O. minuta AA2 ppH strain, the O. minuta AA2scH strain, and the O. minuta AA2Hy strain was inoculated into 5 ml of B2YP4G medium, cultured at 27° C. for 1 day, and then diluted with B2YP4G medium to adjust OD600 at 10. […] A culture supernatant was prepared from the culture solution, and the amount of antibody production was measured by the method described in Example 21 (3).

[4] = test system: O. minuta YY3P4omH strain; experiment: Antibody production by PMT4-inactivated, HAC1-introduced O. minuta using PMT inhibitor (1c), TR-FRET quantification; format: cell-based, Ogataea minuta; settings: stock solution 10 mM; 27° C., 3 days (FIG. 18)
Experimental: as §1, §2

[5] = test system: S. cerevisiae T2K01, T2K02, T2K03 and T2K04 strains; experiment: Antibody productivity of transformed S. cerevisiae with PMT inhibitor added, sandwich ELISA; format: cell-based, Saccharomyces cerevisiae; settings: 10 μM PMT inhibitor in YPAD medium, 30° C., 3 days (FIG. 8B)
Experimental: The S. cerevisiae T2K01, S. cerevisiae T2K02, S. cerevisiae T2K03, and S. cerevisiae T2K04 strains prepared in Example 14 were cultured using ST medium at 30° C. for 3 days. The culture solution was inoculated into YPAD medium to result in a final concentration of 5% therein, and culture was conducted at 30° C. for 3 days. A culture supernatant was prepared from the culture solution, and the resultant was designated as a sample containing antibodies secreted and produced by yeast. The secreted and produced antibodies were subjected to quantitative assay via sandwich ELISA. TRAIL receptor proteins that were antigens of the anti-TRAIL receptor antibodies were adsorbed on a 96-well plate, a yeast sample was added, and detection was carried out using a peroxidase-labeled human IgG specific Fc antibody (Peroxidase-labeled affinity purified antibody to human IgG (Fc) (KPL)) and the ABTS peroxidase substrate (KPL). Antibodies produced in animal cells (NS0) were used as standard samples.
The S. cerevisiae T2K01, S. cerevisiae T2K02, S. cerevisiae T2K03, and S. cerevisiae T2K04 strains prepared in Example 14 were cultured using ST medium at 30° C. for 3 days. […]

O. minuta YY1 strains = experiment: Evaluation of PMT inhibitor (5a): antibody production by O. minuta YY1, Western analysis and TR-FRET quantification; format: cell-based, Ogataea minuta; settings: 1 μm, plus 0.02 μM as OD600 increased by 1, 27° C.
Experimental: 20 mM Tris-HCl buffer (pH 7.2) comprising 12 μl of 0.97 μg/ml LANCE Eu-W1024 labeled anti-human IgG (PerkinElmer), 8.3 ug/ml of biotin-conjugated mouse anti-human IgG (BD Bioscience), 16.7 ug/ml Surelight APC streptavidin (PerkinElmer), and 10% of Block Ace (Dainippon Pharmaceutical) was applied to a 96-well half area plate (Corning), and 2 μl of a sample solution prepared by adequately diluting the culture solution prepared in (2) above with 20 mM Tris-HCl buffer (pH 7.2) containing 10% of Block Ace was introduced therein, followed by agitation. The sample solution was subjected to the reaction at room temperature in the dark for 1 hour, and fluorescence was then assayed using EnVision (PerkinElmer). The amount of aggregate antibodies produced was determined based on the value at 665 nm/615 nm. Antibodies produced in animal cells (CHO) were used as standard samples. […] However, similar effects of production could be expected even via introduction of the HAC1 gene derived from a species different from a host.
A platinum loopful of the O. minuta YY1 strains into which antibody genes had been introduced was inoculated into 5 ml of B2YP4G medium, cultured at 27° C. for 1 day, and diluted with B2YP4G medium to adjust OD600 at 10. […]

Compound | PMT inhibitor amount added as the OD600 value increased by 1 giving the highest antibody productivity [1] | adequate concentration of the PMT inhibitor to be added ([2]; 0, 1, 5, 10, 20 and 50 μM tested in BYPM medium, 28° C., 2 days) [µM] | amount of antibody secretion ([2]; PMT inhibitor at 5 μM) | percentage of aggregate formation ([2]; PMT inhibitor at 5 μM) | effects of accelerating antibody secretion [3] | PMT inhibitor amount added as the OD600 value increased by 1 giving the highest antibody productivity [4] | synergistic effects of coexpression of the activated HAC1 gene and the RRBP1 gene on antibody production [5] | effects compared with PMT inhibitor (1c) (O. minuta YY1 strains; 3 days) | productivity of antibody aggregates (O. minuta YY1 strains; 3 days (FIG. 19, FIG. 20))
5-[[3,4-(1-phenylmethoxy)phenyl]methylene]-4-oxo-2-thioxo-3-thiazolidineacetic acid [PMT inhibitor (1c)] | approximately 0.008 μM | 5 | increased | increased | more significant effects of accelerating antibody secretion | approximately 0.04 μM | further enhanced |  | 
CC(Oc1cc(/C=C2\SC(=S)N(CC(=O)O)C2=O)ccc1OCCc1ccccc1)c1ccccc1 (stereo not drawn) [PMT inhibitor (5a), {(5Z)-4-oxo-5-[3-(1-phenylethoxy)-4-(2-phenylethoxy)benzylidene]-2-thioxo-1,3-thiazolidin-3-yl}acetic acid] |  |  |  |  |  |  |  | effects equivalent to those of the PMT inhibitor (1c) | tend to increase
